Assay results as given in patent US8772494B2, “N-aryl piperidine substituted biphenylcarboxamides as inhibitors of apolipoprotein b” (Janssen Pharmaceutica N.V., priority 2003, dated 2014).

Legend:
[1] = target: MTP (Homo sapiens, UniProt P55157); test: MTP assay (triglyceride transfer from donor to acceptor vesicles); format: biochemical; conditions: MTP activity, percent triglyceride transfer, 37° C.; read-out: pIC50 values (= −log IC50 value) (converted)
Description: MTP activity was measured using an assay similar to one described by J. R. Wetterau and D. B. Zilversmit in Chemistry and Physics of Lipids, 38, 205-222 (1985). To prepare the donor and acceptor vesicles, the appropriate lipids in chloroform were put into a glass test tube and dried under a stream of N2. A buffer containing 15 mM Tris-HCl pH 7.5, 1 mM EDTA, 40 mM NaCl, 0.02% NaN3 (assay buffer) was added to the dried lipid. The mixture was vortexed briefly and the lipids were then allowed to hydrate for 20 min on ice. Vesicles were then prepared by bath sonication (Branson 2200) at room temperature for maximum 15 min. Butylated hydroxytoluene was included in all vesicle preparations at a concentration of 0.1%. The lipid transfer assay mixture contained donor vesicles (40 nmol phosphatidylcholine, 7.5 mol % of cardiolipin and 0.25 mol % glycerol tri [1-^14C]-oleate), acceptor vesicles (240 nmol phosphatidylcholine) and 5 mg BSA in a total volume of 675 μl in a 1.5 ml microcentrifuge tube. Test compounds were added dissolved in DMSO (0.13% final concentration). After 5 minutes of pre-incubation at 37° C., the reaction was started by the addition of MTP in 100 μl dialysis buffer. The reaction was stopped by the addition of 400 μl DEAE-52 cellulose pre-equilibrated in 15 mM Tris-HCl pH 7.5, 1 mM EDTA, 0.02% NaN3 (1:1, vol/vol). The mixture was agitated for 4 min and centrifuged for 2 min at maximum speed in an Eppendorf centrifuge (4° C.) to pellet the DEAE-52-bound donor vesicles. An aliquot of the supernatant containing the acceptor liposomes was counted and the [^14C]-counts were used to calculate the percent triglyceride transfer from donor to acceptor vesicles.
Resulting IC50 values are enumerated in Table C.2. When the calculated IC50 was below 7, not enough data points were available at the tested concentrations to calculate an IC50 value.

[2] = tested on: ApoB secretion, HepG2 cells; test: Quantification of the secretion of ApoB; format: cell-based; conditions: Homo sapiens, 24 hours of incubation, secreted apoB immunoprecipitated, read-out: pIC50 values (= −log IC50 value) (converted)
Description: HepG2 cells were cultured in 24-well plates in MEM Rega 3 containing 10% fetal calf serum. At 70% confluency, the medium was changed and the test compound or carrier (DMSO, 0.4% final concentration) was added. After 24 hours of incubation, the medium was transferred to Eppendorf tubes and cleared by centrifugation. A sheep antibody directed against either apoB was added to the supernatant and the mixture was kept at 8° C. for 24 hours. Then, rabbit anti-sheep antibody was added and the immune complex was allowed to precipitate for 24 hours at 8° C. The immunoprecipitate was pelleted by centrifugation for 25 minutes at 1320 g and washed twice with a buffer containing 40 mM Mops, 40 mM NaH2PO4, 100 mM NaF, 0.2 mM DTT, 5 mM EDTA, 5 mM EGTA, 1% Triton-X-100, 0.5% sodium deoxycholate (DOC), 0.1% SDS, 0.2 μM leupeptin and 0.2 μM PMSF. Radioactivity in the pellet was quantified by liquid scintillation counting.
Resulting IC50 values are enumerated in Table C.1. When the calculated IC50 was below 6, not enough data points were available at the tested concentrations to calculate an IC50 value.

MTP, sequence (P55157 19-894, species assumed): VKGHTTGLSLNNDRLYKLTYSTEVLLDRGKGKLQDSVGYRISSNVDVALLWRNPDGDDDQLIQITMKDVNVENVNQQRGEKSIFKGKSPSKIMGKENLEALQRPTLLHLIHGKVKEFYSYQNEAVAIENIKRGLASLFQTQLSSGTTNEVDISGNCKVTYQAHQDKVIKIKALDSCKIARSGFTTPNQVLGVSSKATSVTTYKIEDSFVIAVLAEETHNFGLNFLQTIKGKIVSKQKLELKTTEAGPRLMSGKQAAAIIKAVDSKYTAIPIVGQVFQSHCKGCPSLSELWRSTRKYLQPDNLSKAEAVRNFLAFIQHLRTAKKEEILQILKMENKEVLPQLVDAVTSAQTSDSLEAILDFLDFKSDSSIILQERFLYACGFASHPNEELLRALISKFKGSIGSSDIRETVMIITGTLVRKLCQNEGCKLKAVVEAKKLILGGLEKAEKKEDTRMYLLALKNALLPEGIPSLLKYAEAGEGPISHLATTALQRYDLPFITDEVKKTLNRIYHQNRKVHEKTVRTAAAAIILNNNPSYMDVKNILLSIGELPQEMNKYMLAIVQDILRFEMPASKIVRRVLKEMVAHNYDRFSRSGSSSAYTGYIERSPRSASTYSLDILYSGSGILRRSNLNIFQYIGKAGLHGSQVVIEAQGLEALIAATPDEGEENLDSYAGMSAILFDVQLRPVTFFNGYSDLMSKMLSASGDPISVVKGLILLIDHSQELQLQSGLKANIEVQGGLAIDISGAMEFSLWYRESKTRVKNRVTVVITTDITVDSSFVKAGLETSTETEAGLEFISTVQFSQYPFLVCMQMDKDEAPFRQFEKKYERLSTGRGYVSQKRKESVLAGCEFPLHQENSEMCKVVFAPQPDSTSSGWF
MTP, sequence (P07237 18-508 partner, species assumed): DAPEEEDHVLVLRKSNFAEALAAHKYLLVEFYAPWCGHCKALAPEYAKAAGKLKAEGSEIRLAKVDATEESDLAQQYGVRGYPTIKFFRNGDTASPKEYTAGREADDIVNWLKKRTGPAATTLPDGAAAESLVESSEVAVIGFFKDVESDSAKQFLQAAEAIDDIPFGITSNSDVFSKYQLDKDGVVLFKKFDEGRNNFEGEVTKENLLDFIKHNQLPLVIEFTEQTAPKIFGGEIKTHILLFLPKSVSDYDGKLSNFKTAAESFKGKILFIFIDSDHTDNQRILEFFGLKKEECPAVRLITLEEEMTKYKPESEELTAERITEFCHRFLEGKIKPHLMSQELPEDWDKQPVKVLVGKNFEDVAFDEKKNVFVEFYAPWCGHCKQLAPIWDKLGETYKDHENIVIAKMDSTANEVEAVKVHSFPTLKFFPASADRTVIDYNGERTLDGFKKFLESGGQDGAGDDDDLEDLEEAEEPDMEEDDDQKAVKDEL

Row | IC50 [1] [nM] | IC50 [2] [nM] | Structure (SMILES)
1 | 1.7 | 21.1 | COC(=O)[C@@H](C)NC(=O)CC1CCN(c2ccc(NC(=O)c3cccc(C)c3-c3ccc(C(F)(F)F)cc3)cc2)CC1 [Compound 44]
2 | 9.1 | 17.3 | CCNC(=O)[C@H](C)NC(=O)CC1CCN(c2ccc(NC(=O)c3cccc(C)c3-c3ccc(C(F)(F)F)cc3)cc2)CC1 [Compound 49]
3 | 6.04 | 15.5 | CCNC(=O)COC(=O)CC1CCN(c2ccc(NC(=O)c3cccc(C)c3-c3ccc(C(F)(F)F)cc3)cc2)CC1 [Compound 51]
4 | 3 | 74 | CCOC(=O)CC[C@@H](NC(=O)CC1CCN(c2ccc(NC(=O)c3cccc(C)c3-c3ccc(C(F)(F)F)cc3)cc2)CC1)C(=O)OCC [Compound 52]
5 | 15.7 | 126 | COC(=O)[C@H](Cc1c[nH]c2ccccc12)NC(=O)CC1CCN(c2ccc(NC(=O)c3cccc(C)c3-c3ccc(C(F)(F)F)cc3)cc2)CC1 [Compound 53]
6 | 3.11 | 488 | COC(=O)CCC(NC(=O)CC1CCN(c2ccc(NC(=O)c3cccc(C)c3-c3ccc(C(F)(F)F)cc3)cc2)CC1)C(=O)OC (centres unmarked) [Compound 54]
7 | 1.62 | 6.03 | COC(=O)CCNC(=O)CC1CCN(c2ccc(NC(=O)c3cccc(C)c3-c3ccc(C(F)(F)F)cc3)cc2)CC1 [Compound 55]
